Results: patent US20250304551A1 (SHANGHAI APEIRON THERAPEUTICS COMPANY LIMITED, priority 2022, published 2025)
pIC50: −log10 of the molar value.

What was measured:
[1] = target: T1, Human KIF18A (amino acid sequence 1-417) (Homo sapiens, UniProt Q8NI77); experiment: Enzyme activity detection experiment (ADP-Glo, KIF18A with tubulin and ATP); type: biochemical; conditions: tubulin 60 μg/mL, ATP 25 μM, KIF18A protein 2.5 nM, 120 minutes at ambient temperature, ADP-Glo chemiluminescence
T1 construct: purchased Viva Biotech (Shanghai) Ltd
T1 sequence (Q8NI77 1-417): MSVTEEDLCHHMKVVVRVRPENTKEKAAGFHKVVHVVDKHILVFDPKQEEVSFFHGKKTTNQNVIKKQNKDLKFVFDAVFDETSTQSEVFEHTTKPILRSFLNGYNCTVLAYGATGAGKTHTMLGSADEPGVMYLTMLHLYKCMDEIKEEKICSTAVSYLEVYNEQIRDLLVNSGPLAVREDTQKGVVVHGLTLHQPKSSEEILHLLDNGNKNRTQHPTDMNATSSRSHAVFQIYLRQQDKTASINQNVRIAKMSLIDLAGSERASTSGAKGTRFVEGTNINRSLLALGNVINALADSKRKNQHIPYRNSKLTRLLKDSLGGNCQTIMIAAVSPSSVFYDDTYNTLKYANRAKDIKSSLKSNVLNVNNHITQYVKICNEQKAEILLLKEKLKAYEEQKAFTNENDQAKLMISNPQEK
T1 sequence (Q2XVP4 whole entry partner): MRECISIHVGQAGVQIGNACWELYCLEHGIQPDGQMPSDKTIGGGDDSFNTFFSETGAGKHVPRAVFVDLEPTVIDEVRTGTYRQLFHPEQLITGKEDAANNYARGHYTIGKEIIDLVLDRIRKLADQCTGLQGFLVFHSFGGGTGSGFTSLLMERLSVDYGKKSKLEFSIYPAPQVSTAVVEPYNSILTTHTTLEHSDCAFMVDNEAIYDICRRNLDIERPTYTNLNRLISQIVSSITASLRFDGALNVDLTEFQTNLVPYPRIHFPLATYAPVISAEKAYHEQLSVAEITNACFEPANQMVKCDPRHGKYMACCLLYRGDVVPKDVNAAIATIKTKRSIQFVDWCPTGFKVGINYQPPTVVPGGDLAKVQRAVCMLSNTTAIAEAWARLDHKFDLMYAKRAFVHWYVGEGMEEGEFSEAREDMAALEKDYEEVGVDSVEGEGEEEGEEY
T1 sequence (P02554 whole entry partner): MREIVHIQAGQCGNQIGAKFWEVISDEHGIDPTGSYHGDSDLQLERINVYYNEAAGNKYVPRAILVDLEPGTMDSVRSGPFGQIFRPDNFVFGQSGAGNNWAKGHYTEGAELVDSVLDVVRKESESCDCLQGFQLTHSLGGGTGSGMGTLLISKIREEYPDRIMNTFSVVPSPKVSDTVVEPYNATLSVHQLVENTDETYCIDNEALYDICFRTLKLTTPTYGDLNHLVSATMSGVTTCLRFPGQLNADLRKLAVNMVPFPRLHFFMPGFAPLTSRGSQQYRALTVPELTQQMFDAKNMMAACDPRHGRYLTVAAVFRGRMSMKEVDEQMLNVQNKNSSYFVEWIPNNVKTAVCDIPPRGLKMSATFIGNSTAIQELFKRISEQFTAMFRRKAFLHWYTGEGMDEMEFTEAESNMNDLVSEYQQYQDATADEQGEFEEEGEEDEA
Description: Materials: Human KIF18A (amino acid sequence 1-417) was obtained from Viva Biotech (Shanghai) Ltd., and the ADP-Glo™ protein kinase kit was acquired from Promega, USA. Tubulin was sourced from Cytoskeleton, USA, while a 384-well assay plate and the Envision multifunctional microplate reader were obtained from PerkinElmer, USA.
Enzyme activity detection: The compound powder in DMSO was firstly dissolved to prepare a 10 mM stock solution. Next, gradient dilutions were prepared in the microplate to achieve final concentrations of […]. Sequentially, 2.5 μL of tubulin (60 μg/mL), the compound, ATP (25 μM), and KIF18A protein (2.5 nM) were added to each well, and the reaction was incubated at ambient temperature for 120 minutes. After the reaction, 10 μL of ADP-Glo™ reagent was added to each well and incubated at ambient temperature for 30 minutes. Subsequently, 20 μL of detection reagent was added to each well and incubated for an additional 30 minutes in the dark. Finally, chemiluminescence detection was performed using the PerkinElmer Envision multifunctional microplate reader.

OVCAR3 cells = experiment: Cell proliferation activity test, OVCAR3 (CyQUANT Direct); type: cell-based; conditions: Homo sapiens, OVCAR-3, 72 h, 3 days incubation, CyQUANT fluorescence detection, read-out: OVCAR-3 Cell Viability_IC50_nM
Description: Materials and Cells: OVCAR3 cells were purchased from Nanjing Cobioer Biosciences Co., Ltd. RPMI-1640 medium, fetal bovine serum, and the CyQUANT Direct Cell Proliferation Assay kit were purchased from Thermo Fisher Scientific, USA; 96-well cell culture plates were sourced from Corning, USA.
Cell Culture: Culture OVCAR3 cells with RPMI-1640 medium containing […] and incubate them in a […] incubator at 37° C. Only cells in the logarithmic growth phase can be used for the test.
Inoculate OVCAR3 cells into a 96-well cell culture plate at 90 μL per well and incubate overnight in a […] incubator at 37° C. Dissolve the compound powder in DMSO to prepare a stock solution of 10 mM. Then perform gradient dilution for the compounds in the microplate to achieve a final concentration of 0-10 μM. Add 10 μL of cell culture medium containing compounds to each well to make the final DMSO content 0.20%. Incubate the cell plates in a […] incubator at 37° C. for 3 days. Add 100 μL of CyQUANT detection reagent to each well, react at 37° C. for 60 min, and perform fluorescence detection using the PerkinElmer Envision.

Row | Compound | pIC50 [1] | pIC50 (OVCAR3 cells)
1 | Cc1cc(-c2cc(-c3ccc(NS(=O)(=O)CCO)cc3N3CCC4(CC3)CC4)on2)nc(N2CCC(F)(F)CC2)n1 [Example 5, N-(4-(3-(2-(4,4-difluoropiperidin-1-yl)-6-methylpyrimidin-4-yl)isoxazol-5-yl)-3-(6-azaspiro[2.5]octan-6-yl)phenyl)-2-hydroxyethane-1-sulfonamide] | 5.98 | 6.41
2 | Cc1cc(-c2cc(-c3ccc(NS(=O)(=O)CCO)cc3N3CCC4(CC3)CC4)n[nH]2)nc(N2CCC(F)(F)CC2)n1 [Example 6, N-(4-(5-(2-(4,4-difluoropiperidin-1-yl)-6-methylpyrimidin-4-yl)-1H-pyrazol-3-yl)-3-(6-azaspiro[2.5]octan-6-yl)phenyl)-2-hydroxyethane-1-sulfonamide] | 5.96 | 6.59
3 | Cc1ccc2cc(-c3cn(-c4ccc(NS(=O)(=O)CCO)cc4N4CCC5(CC4)CC5)nn3)c(F)c(N3CCC(F)(F)CC3)c2n1 [Example 75, N-(3-{6-azaspiro[2.5]octan-6-yl}-4-{4-[8-(4,4-difluoropiperidin-1-yl)-7-fluoro-2-methylquinolin-6-yl]-1H-1,2,3-triazol-1-yl}phenyl)-2-hydroxyethane-1-sulfonamide] | < 5.52 | 6.52
4 | O=S(=O)(CCO)Nc1ccc(-n2cc(-c3cc(OCC4CCOC4)nc(N4CCC(F)(F)CC4)n3)nn2)c(N2CCC3(CC2)CC3)c1 (stereo not shown) [Example 97, N-(3-(6-azaspiro[2.5]octan-6-yl)-4-{4-[2-(4,4-difluoropiperidin-1-yl)-6-[(oxolan-3-yl)methoxy]pyrimidin-4-yl]-1-1,2,3-triazol-1-yl}phenyl)-2-hydroxyethane-1-sulfonamide] | 6.63 | 
5 | CCC(CO)S(=O)(=O)Nc1ccc(-n2cc(-c3cc(C)nc(N4CCC(F)(F)CC4)n3)nn2)c(N2CCC3(CC2)CC3)c1 (stereo not shown) [Example 98, N-(3-{6-azaspiro[2.5]octan-6-yl}-4-{4-[2-(4,4-difluoropiperidin-1-yl)-6-methylpyrimidin-4-yl]-1H-1,2,3-triazol-1-yl}phenyl)-1-hydroxybutane-2-sulfonamide] | 6.81 | 
6 | C[C@@H](CO)S(=O)(=O)Nc1ccc(-n2cc(-c3cc(N4CCC(F)(F)CC4)c4ncccc4c3)nn2)c(N2CCC3(CC2)CC3)c1 [Example 100, (2S)—N-(3-{6-azaspiro[2.5]octan-6-yl}-4-{4-[8-(4,4-difluoropiperidin-1-yl)quinolin-6-yl]-1H-1,2,3-triazol-1-yl}phenyl)-1-hydroxypropane-2-sulfonamide] | 6.73 | 
7 | CC(C)(CO)S(=O)(=O)Nc1ccc(-n2cc(-c3cc(N4CCC(F)(F)CC4)c4ncccc4c3)nn2)c(N2CCC3(CC2)CC3)c1 [Example 101, N-(4-(4-(8-(4,4-difluoropiperidin-1-yl)quinolin-6-yl)-1H-1,2,3-triazol-1-yl)-3-(6-azaspiro[2.5]octan-6-yl)phenyl)-1-hydroxy-2-methylpropane-2-sulfonamide] | 6.49 | 
8 | COc1cc(-c2nnc(-c3ccc(NS(=O)(=O)C(C)CO)cc3N3CCC4(CC3)CC4)o2)cc(N2CCC(F)(F)CC2)n1 (stereo not shown) [Example 102, N-(4-(5-(2-(4,4-difluoropiperidin-1-yl)-6-methoxypyridin-4-yl)-1,3,4-oxadiazol-2-yl)-3-(6-azaspiro[2.5]octan-6-yl)phenyl)-1-hydroxypropane-2-sulfonamide] | 7.22 | 
9 | COc1cc(-c2nnc(-c3ccc(NS(=O)(=O)C(C)(C)CO)cc3N3CCC4(CC3)CC4)o2)cc(N2CCC(F)(F)CC2)n1 [Example 105, N-(4-(5-(2-(4,4-difluoropiperidin-1-yl)-6-methoxypyridin-4-yl)-1,3,4-oxadiazol-2-yl)-3-(6-azaspiro[2.5]octan-6-yl)phenyl)-1-hydroxy-2-methylpropane-2-sulfonamide] | 7.21 | 

Other lines, results leading:

Row | pIC50 [1] | pIC50 (OVCAR3 cells) | Compound
10 | 6.34 | 6.37 | Cc1cc(-c2cn(-c3ccc(NS(=O)(=O)CCO)cc3N3CCC4(CC3)CC4)nn2)nc(C2=COCCO2)n1 [Example 38, N-(4-(4-(2-(5,6-dihydro-1,4-dioxin-2-yl)-6-methylpyrimidin-4-yl)-1H-1,2,3-triazol-1-yl)-3-(6-azaspiro[2.5]octan-6-yl)phenyl)-2-hydroxyethane-1-sulfonamide]
11 | < 5.52 | 6.39 | Cc1cc(-c2cn(-c3ccc(NS(=O)(=O)CCO)cc3N3CCC4(CC3)CC4)nn2)nc(C2COCCO2)n1 (stereo not shown) [Example 40, N-(4-(4-(2-(1,4-dioxan-2-yl)-6-methylpyrimidin-4-yl)-1H-1,2,3-triazol-1-yl)-3-(6-azaspiro[2.5]octan-6-yl)phenyl)-2-hydroxyethane-1-sulfonamide]
12 | 7.19 | 7.43 | Cc1cc(-c2cn(-c3ccc(NS(=O)(=O)CCO)cc3N3CCC4(CC3)CC4)nn2)nc(N2CC3CC2CO3)n1 (stereo not shown) [Example 47, N-(4-(4-(2-(2-oxa-5-azabicyclo[2.2.1]heptan-5-yl)-6-methylpyrimidin-4-yl)-1H-1,2,3-triazol-1-yl)-3-(6-azaspiro[2.5]octan-6-yl)phenyl)-2-hydroxyethane-1-sulfonamide]
13 | 7.14 | 8.15 | O=S(=O)(CCO)Nc1ccc(-n2cc(-c3cc(OCCO)nc(N4CCC(F)(F)CC4)n3)nn2)c(N2CCC3(CC2)CC3)c1 [Example 95, N-(3-{6-azaspiro[2.5]octan-6-yl}-4-{4-[2-(4,4-difluoropiperidin-1-yl)-6-(2-hydroxyethoxy)pyrimidin-4-yl]-1H-1,2,3-triazol-1-yl}phenyl)-2-hydroxyethane-1-sulfonamide]
14 | 6.93 |  | O=S(=O)(CCO)Nc1ccc(-n2cc(-c3cc(OC4CCOC4)nc(N4CCC(F)(F)CC4)n3)nn2)c(N2CCC3(CC2)CC3)c1 (stereo not shown) [Example 96, N-(3-{6-azaspiro[2.5]octan-6-yl}-4-{4-[2-(4,4-difluoropiperidin-1-yl)-6-(oxolan-3-yloxy)pyrirmidin-4-yl]-1H-1,2,3-triazol-1-yl}phenyl)-2-hydroxyethane-1-sulfonamide]
15 | 6.67 |  | C[C@H](CO)S(=O)(=O)Nc1ccc(-n2cc(-c3cc(N4CCC(F)(F)CC4)c4ncccc4c3)nn2)c(N2CCC3(CC2)CC3)c1 [Example 99, (2R)—N-(3-(6-azaspiro[2.5]octan-6-yl)-4-{4-[8-(4,4-difluoropiperidin-1-yl)quinolin-6-yl]-1H-1,2,3-triazol-1-yl}phenyl)-1-hydroxypropane-2-sulfonamide]
16 | 7.14 |  | Cc1cc(-c2nnc(-c3ccc(NS(=O)(=O)C(C)CO)cc3N3CCC4(CC3)CC4)o2)cc(N2CCC(F)(F)CC2)n1 (stereo not shown) [Example 103, N-(4-(5-(2-(4,4-difluoropiperidin-1-yl)-6-methylpyridin-4-yl)-1,3,4-oxadiazol-2-yl)-3-(6-azaspiro[2.5]octan-6-yl)phenyl)-1-hydroxypropane-2-sulfonamide]
17 | 7.08 |  | Cc1cc(-c2nnc(-c3ccc(NS(=O)(=O)C(C)(C)CO)cc3N3CCC4(CC3)CC4)o2)cc(N2CCC(F)(F)CC2)n1 [Example 104, N-(4-(5-(2-(4,4-difluoropiperidin-1-yl)-6-methylpyridin-4-yl)-1,3,4-oxadiazol-2-yl)-3-(6-azaspiro[2.5]octan-6-yl)phenyl)-1-hydroxy-2-methylpropane-2-sulfonamide]
18 | 6.68 |  | Cc1cc2nc(-c3ccc(NS(=O)(=O)CCO)cc3N3CCC4(CC3)CC4)[nH]c2c(N2CCC(F)(F)CC2)n1 [Example 106, N-(4-(4-(4,4-difluoropiperidin-1-yl)-6-methyl-3H-imidazo[4,5-c]pyridin-2-yl)-3-(6-azaspiro[2.5]octan-6-yl)phenyl)-2-hydroxyethane-1-sulfonamide]
